Consider two molecules from patent US10000471B2, “Pyrazole P38 map kinase inhibitors” (Respivert Limited, priority 2010, dated 2018).

The target of series [1] is T1, p38 MAPKα isoform (MAPK14) (Homo sapiens, UniProt Q16539).
T1 construct: purchased Invitrogen
Nature of the series: Enzyme inhibition assay (FRET, Z-LYTE), p38 MAPKα via MAPKAP-K2 activation. The series is classed as biochemical. The settings on record: read-out: Enzyme Inhibition IC50 p38α. The method, boiled down: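 Z-LYTE FRET format, in which protease cleaves only non-phosphorylated peptide, read after 1 h development. Compound was mixed with p38 MAPKα for 2 h at RT, and inhibition was gauged from MAPKAP-K2 activation/phosphorylation rather than directly. Percent inhibition against an uninhibited control was fitted to give IC50.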

Series [2] concerns TNFα release in d-U937 cells. Nature of the series: LPS-induced TNFα release in d-U937 cells. The settings on record: Homo sapiens, dU937, relative to 10 μg/mL BIRB796, read-out: LPS/TNFα REC50 d-U937. In kind it is cell-based, human. The gist of the method:
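Sandwich ELISA of TNFα and IL-8 in supernatants after 4 hr 0.1 μg/mL LPS (E. coli O111:B4) challenge of U937 cells differentiated with PMA 100 ng/ml for 48–72 hr, compound added 2 hr beforehand. IL-8: IC50 from inhibition versus vehicle; TNFα: REC50 from inhibition as percentage of 10 μg/mL BIRB796 effect.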

Series [3] concerns Differentiated U937 cells. In words: Cell viability MTT assay. In kind it is cell-based, human. The settings on record: negative = apparent increase in viability; for MTT Assay (Viability) 4 h d-U937, percentage loss of cell viability: 4 hr in 5% FCS; for MTT Assay (Viability) 24 h d-U937, percentage loss of cell viability: 24 h in 10% FCS. The gist of the method:
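Differentiated U937 cells pre-incubated with compound either 4 hr in 5% FCS or 24 h in 10% FCS, then 1 hr MTT. Formazan dissolved in DMSO, absorbance at 550 nm. Percentage viability loss relative to 0.5% DMSO vehicle; apparent increases appear as negative percentages.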
(In general: Tetrazolium dyes change colour on reduction, which living cells bring about.)

The subject of a further series is Balb/c mice. In words: LPS-induced neutrophil accumulation in mice. In kind it is in vivo. The settings on record: for Neutrophil numbers in BAL / Neutrophil numbers in BAL (% inhibition): intra tracheal. The protocol:
LPS-Induced Neutrophil Accumulation in Mice
Non-fasted Balb/c mice were dosed by the intra tracheal route with either vehicle, or the test substance at the indicated times (within the range 2-8 hr) before stimulation of the inflammatory response by application of an LPS challenge. At T=0, mice were placed into an exposure chamber and exposed to LPS. After a further 8 hr the animals were anesthetized, their tracheas cannulated and BALF extracted by infusing and then withdrawing from their lungs 1.0 mL of PBS via the tracheal catheter. Total and differential white cell counts in the BALF samples were measured using a Neubaur haemocytometer. Cytospin smears of the BALF samples were prepared by centrifugation at 200 rpm for 5 min at RT and stained using a DiffQuik stain system (Dade Behring). Cells were counted using oil immersion microscopy.

[4] abbreviates: Table 6, 0.2 mg/mL, 8 h pre-dose.

T1 sequence (Q16539 whole entry, canonical isoform): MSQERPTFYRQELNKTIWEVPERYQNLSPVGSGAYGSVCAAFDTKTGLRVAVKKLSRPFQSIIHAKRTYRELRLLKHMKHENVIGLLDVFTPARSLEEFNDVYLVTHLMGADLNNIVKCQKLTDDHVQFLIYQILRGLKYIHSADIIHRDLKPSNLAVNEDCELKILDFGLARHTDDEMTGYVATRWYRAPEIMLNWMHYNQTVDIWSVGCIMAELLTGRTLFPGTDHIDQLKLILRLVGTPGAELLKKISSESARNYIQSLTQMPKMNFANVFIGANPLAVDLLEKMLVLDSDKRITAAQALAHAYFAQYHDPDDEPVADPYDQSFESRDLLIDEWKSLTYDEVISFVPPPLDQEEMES

`CNC(=O)Nc1cc(Oc2ccc(NC(=O)Nc3cc(C(C)(C)C)nn3-c3ccc(OC)cc3)c(Cl)c2Cl)ccn1` [Example 9, N-Methyl-N′-4-(4-(3-(3-tert-butyl-1-p-anisyl-1H-pyrazol-5-yl)ureido)-2,3-dichlorophen-1-yloxy)pyridin-2-ylurea]: the IC50 in series [1] was determined as 19.1 nM. Further, the EC50 in series [2] is 0.2 nM. The “MTT Assay (Viability) 4 h d-U937, percentage loss of cell viability” value in series [3] is −26.8%. The “MTT Assay (Viability) 24 h d-U937, percentage loss of cell viability” value in series [3] is on record as 65.3%. The “Neutrophil numbers in BAL” value was 14.98 ± 2.25 × 10^5/mL in the series with Balb/c mice (0.05 mg/mL, 2 hr pre-dose); 8.75 ± 1.38 × 10^5/mL with Balb/c mice (0.2 mg/mL, 2 hr pre-dose); 13.44 ± 2.03 × 10^5/mL with Balb/c mice (0.2 mg/mL, 8 h pre-dose); 5.80 ± 1.18 × 10^5/mL in the series on Balb/c mice (1.0 mg/mL, 2 hr pre-dose). For the same molecule, the “Neutrophil numbers in BAL (% inhibition)” value with Balb/c mice (0.05 mg/mL, 2 hr pre-dose) was 11%; in the series on Balb/c mice (0.2 mg/mL, 2 hr pre-dose), 48%; in the series with Balb/c mice (0.2 mg/mL, 8 h pre-dose), 20%; in the series on Balb/c mice (1.0 mg/mL, 2 hr pre-dose) it was 66%. In addition, in the series with Balb/c mice (administered 2 hr prior to LPS challenge), the “inhibition of neutrophil accumulation into the BALF” value is given as “dose-dependent inhibition”. Also, in the series on Balb/c mice (dosed 8 hr prior to the endotoxin challenge), the “effects of treatment on neutrophil accumulation into the BALF” value is “sustained and still detectable”.
As to `COc1ccc(-n2nc(C(C)(C)C)cc2NC(=O)Nc2ccc(Oc3ccnc(NC(=O)N4CCCC4)c3)c(Cl)c2Cl)cc1` [Example 76, N-(4-(4-(3-(3-(tert-butyl)-1-(4-methoxyphenyl)-1H-pyrazol-5-yl)ureido)-2,3-dichlorophenoxy)pyridin-2-yl)pyrrolidine-1-carboxamide], the IC50 in series [1] was 21 nM. Besides, in series [2], the EC50 stood at 0.9 nM. In series [3], the “MTT Assay (Viability) 4 h d-U937, percentage loss of cell viability” value is reported as −25.5% and the “MTT Assay (Viability) 24 h d-U937, percentage loss of cell viability” value is reported as 27.2%. For the same molecule, in the series on Balb/c mice (setting [4]), the “% inhibition of Influx” value is recorded as 8% and the “Neutrophil numbers in BAL 8 h pre-dose” value is reported as 12.94 ± 2.41 × 10^5/mL. In addition, the “inhibitory effects versus neutrophil influx into the BALF” value in the series with Balb/c mice (dosed 8 hr before the inflammatory stimulus) is “inhibitory effects”.

As a reminder, the IC50 is the point on the concentration scale where inhibition reaches its midpoint.
